Test results as given in patent publication US7786129B2, “Piperazine derivatives of dialkyl oxindoles” (Egis Gyogyszergyar Nyrt, priority 2004, dated 2010).

Compound | melting point
CCC1(CCCCN2CCN(c3ccccn3)CC2)C(=O)Nc2ccc(C)cc21 (stereo not drawn) [Example 80, 3-Ethyl-5-methyl-3-[4-(4-pyridin-2-yl-piperazin-1-yl)-butyl]-1,3-dihydro-2H-indol-2-one] | 168 to 170 °C
CCC1(CCCCN2CCN(c3ccccc3Cl)CC2)C(=O)Nc2ccccc21 (stereo not drawn) [Example 81, 3-{4-[4-(2-Chlorophenyl)-piperazin-1-yl]-butyl}-3-ethyl-1,3-dihydro-2H-indol-2-one] | 145 to 148 °C
CCC1(CCCCN2CCN(c3cccc4c3OCCO4)CC2)C(=O)Nc2cc(F)ccc21 (stereo not drawn) [Example 83, 3-{4-[4-(2,3-Dihydrobenzo[1,4]dioxin-5-yl)-piperazin-1-yl]-butyl}-3-ethyl-6-fluoro-1,3-dihydro-2H-indol-2-one] | 146 to 147 °C
CCC1(CCCCN2CCN(c3ccccn3)CC2)C(=O)Nc2ccc(F)cc21 (stereo not drawn) [Example 84, 3-Ethyl-5-fluoro-3-[4-(4-pyridin-2-yl-piperazin-1-yl)-butyl]-1,3-dihydro-2H-indol-2-one] | 144 to 147 °C
CCC1(CCCCN2CCN(c3cccc(OC)c3)CC2)C(=O)Nc2ccccc21 (stereo not drawn) [Example 91, 3-Ethyl-3-{4-[4-(3-methoxyphenyl)-piperazin-1-yl]-butyl}-1,3-dihydro-2H-indol-2-one] | 123 to 125 °C
CCC1(CCCCCN2CCN(c3ccccn3)CC2)C(=O)Nc2ccccc21 (stereo not drawn) [Example 93, 3-Ethyl-3-[5-(4-pyridin-2-yl-piperazin-1-yl)-pentyl]-1,3-dihydro-2H-indol-2-one] | 127 to 128 °C
CCC1(CCCCN2CCN(c3ccc(C)c(Cl)c3)CC2)C(=O)Nc2ccccc21 (stereo not drawn) [Example 99, 3-{4-[4-(3-Chloro-4-methylphenyl)-piperazin-1-yl]-butyl}-3-ethyl-1,3-dihydro-2H-indol-2-one] | 103 to 106 °C
CCC1(CCCCN2CCN(c3ccc(F)c(Cl)c3)CC2)C(=O)Nc2ccccc21 (stereo not drawn) [Example 100, 3-{4-[4-(3-Chloro-4-fluorophenyl)-piperazin-1-yl]-butyl}-3-ethyl-1,3-dihydro-2H-indol-2-one] | 121 to 124 °C
CCC1(CCCN2CCN(c3cccc(Cl)c3)CC2)C(=O)Nc2ccccc21 (stereo not drawn) [Example 108, 3-{3-[4-(3-Chlorophenyl)-piperazin-1-yl]-propyl}-3-ethyl-1,3-dihydro-2H-indol-2-one] | 119 to 120 °C
CCC1(CCCCN2CCN(c3ccc(F)cc3)CC2)C(=O)Nc2ccc(F)cc21 (stereo not drawn) [Example 111, 3-Ethyl-5-fluoro-3-{4-[4-(4-fluorophenyl)-piperazine-1-yl]-butyl}-1,3-dihydro-2H-indol-2-one] | 119 to 122 °C
CCC1(CCCCN2CCN(c3ccc(F)cc3)CC2)C(=O)Nc2ccc(C)cc21 (stereo not drawn) [Example 113, 3-Ethyl-3-{4-[4-(4-fluorophenyl)-piperazin-1-yl]-butyl}-5-methyl-1,3-dihydro-2H-indol-2-one] | 146 to 149 °C
CCC1(CCCCN2CCN(c3cc(Cl)cc(Cl)c3)CC2)C(=O)Nc2ccc(F)cc21 (stereo not drawn) [Example 114, 3-{4-[4-(3,5-dichlorophenyl)-piperazine-1-yl]-butyl}-3-ethyl-5-fluoro-1,3-dihydro-2H-indol-2-one] | 122 to 124 °C
CCC1(CCCCN2CCN(c3ccc(Cl)c(Cl)c3)CC2)C(=O)Nc2ccc(F)cc21 (stereo not drawn) [Example 115, 3-{4-[4-(3,4-dichlorophenyl)-piperazin-1-yl]-butyl}-3-ethyl-5-fluoro-1,3-dihydro-2H-indol-2-one] | 152 to 155 °C
CCC1(CCCCN2CCN(c3ccc(F)cc3)CC2)C(=O)Nc2c(Cl)cc(F)cc21 (stereo not drawn) [Example 119, 7-chloro-3-ethyl-5-fluoro-3-{4-[4-(4-fluorophenyl)-piperazin-1-yl]-butyl}-1,3-dihydro-2H-indol-2-one] | 161 to 162 °C
CCC1(CCCCN2CCN(c3ccc(Cl)cc3)CC2)C(=O)Nc2ccc(Cl)cc21 (stereo not drawn) [Example 121, 5-chloro-3-{4-[4-(4-chlorophenyl)-piperazin-1-yl]-butyl}-3-ethyl-1,3-dihydro-indol-2-one] | 186 to 188 °C
CCC1(CCCCN2CCN(c3ccc(Cl)cc3)CC2)C(=O)Nc2cc(F)c(Cl)cc21 (stereo not drawn) [Example 122, 5-chloro-3-{4-[4-(4-chlorophenyl)-piperazin-1-yl]-butyl}-3-ethyl-6-fluoro-1,3-dihydro-2H-indol-2-one] | 194 to 197 °C
CCC1(CCCCCN2CCN(c3ccc(Cl)cc3)CC2)C(=O)Nc2ccccc21 (stereo not drawn) [Example 123, 3-{5-[4-(4-chlorophenyl)-piperazin-1-yl]-pentyl}-3-ethyl-1,3-dihydro-2H-indol-2-one] | 142 to 143 °C
CCC1(CCCCN2CCN(c3ccc(Cl)c(Cl)c3)CC2)C(=O)Nc2c(Cl)cc(Cl)cc21 (stereo not drawn) [Example 124, 5,7-dichloro-3-{4-[4-(3,4-dichlorophenyl)-piperazin-1-yl]-butyl}-3-ethyl-1,3-dihydro-2H-indol-2-one] | 164 to 165 °C
CCC1(CCCCCN2CCN(c3ccc(Cl)cc3)CC2)C(=O)Nc2c(Cl)cc(Cl)cc21 (stereo not drawn) [Example 125, 5,7-Dichloro-3-{5-[4-(4-chlorophenyl)-piperazin-1-yl]-pentyl}-3-ethyl-1,3-dihydro-2H-indol-2-one] | 145 to 148 °C
CCC1(CCCCN2CCN(c3ccc(F)cc3Cl)CC2)C(=O)Nc2ccccc21 (stereo not drawn) [Example 126, 3-{4-[4-(2-chloro-4-fluorophenyl)-piperazin-1-yl]-butyl}-3-ethyl-1,3-dihydro-2H-indol-2-one] | 125 to 126 °C
CC1(CCCCN2CCN(c3ccc(Cl)cc3)CC2)C(=O)Nc2c(Cl)cc(Cl)cc21 (stereo not drawn) [Example 128, 5,7-dichloro-3-{4-[4-(4-chlorophenyl)-piperazin-1-yl]-butyl}-3-methyl-1,3-dihydro-2H-indol-2-one] | 168 to 170 °C
